Experimental data reported in patent US4221794A, “Method of imparting immunomodulating and antiviral activity” (Newport Pharmaceuticals International, Inc., priority 1979, dated 1980).
Where a name gives a salt, the structure may show the parent alone.

Assays:
influenza virus [1] = assay: microbe, parasite or virus in culture; assay type: cell-based, influenza virus Type A/USSR 90 (HeLa cell cultures)
[2] = test system: Influenza A Swine 1976 (Hlsw -N1); assay type: cell-based; details: listed as 15418
mouse lymphocytes = assay: Mitogen (Con A) induced mouse lymphocyte (spleen cell) proliferation; assay type: cell-based; details: for Maximum Percent Change, Mitogen Induced (Con A) Mouse Lymph. Prolif.: plus = immunostimulating, minus = immunoinhibiting, 0 = neither
Source text: (§1) The following three assay procedures are used to evaluate the ability of the test substances to modulate the activity of several classes of cells in the immune system. In these systems it is possible to identify both immunopotentiating activity (evidence by an enhancement of the parameter examined) as well as immunosuppressant activity (evidenced by an inhibition of the parameter examined).
1. Mitogen-Induced Mouse Spleen Cell Assay
Mouse spleen cells contain a population of both B and T lymphocytes which can be stimulated by a number of foreign substances (e.g., plant mitogens such as Con A) to proliferate. This enhanced proliferation is an indication of enhanced cell mediated immunity. The method below describes the system used to evaluate test substances as immunopotentiators.
Concanavalin A (Calbiochem, La Jolla, California), Lot #210073, lyophilized in NaCl, was prepared first as a 1% solution and diluted as a 2×concentration for each dilution (0.5, 1.0, 2.5 μg/ml).
Six to eight week old male Balb/c and C3 H inbred mice were obtained from the following sources: Flow Research Animals, Inc., Dublin, Virginia; Charles River Breeding Laboratories, Wilmington, Massachusetts; Laboratory Supply Company, Indianapolis, Indiana; and Lionel Strong Foundation, San Diego, California.
Three to five mice were sacrificed by cervical dislocation and the spleens aseptically removed. Pooled spleens were minced and teased with sterile forceps; then strained through a double layer of nylon mesh. The cell suspension was washed once with 15 ml of RPMI 1640 supplemented with 5% fetal calf serum and antibiotics. Cells were cultured at a concentration of 10^6 cells/0.1 ml/well in micro-plates. Cultures were incubated in the presence or absence of mitogen in a humidified atmosphere containing 5% CO2 for 48 hours. The test compound was added to cultures at various concentrations concommitant with mitogen.
Proliferation was assayed by the degree of incorporation of 1.0 μCi of [^3 H] thymidine over an 18 hour incubation period. Cultures were harvested by a MASH unit (Otto Hiller Co., Madison, Wisconsin) and thymidine incorporation was assayed by liquid scintillation spectrometry. Cultures were performed in triplicate and data are expressed as means plus or minus the standard error of the experimental means. Drug stimulation indices over control values were also calculated and portrayed graphically.
(§2) Table 4 above presents the results of an evaluation of a number of these subject compounds as potentiators of the immune response. Three different test systems were used. The first involves a measure of the ability of the test compound to enhance the ability of mouse lymphocytes to proliferate in response to a plant mitogen (Con A). The second involves measuring the ability of the test compounds to enhance human lymphocyte proliferation in response to a second plant mitogen (PHA). The third system measures the ability of these test substances to enhance macrophage proliferation in response to a natural lymphokine (MMF, Macrophage Mitogenic Factor).

guinea pig macrophages = assay: Lymphokine (MMF) induced guinea pig macrophage proliferation; assay type: cell-based; details: plus = immunostimulating, minus = immunoinhibiting, 0 = neither
Method: 3. The macrophage represents a subpopulation of white blood cells which is an important component of the immune system in control of both cellular and humoral immunity. The assay system described below evaluates the substances studied as potentiators of macrophage function.
Phytohemagglutinin (PHA) (HA-17) was purchased from Burroughs Wellcome. A preparation containing Macrophage Mitogen Factor (MMF) and Macrophage Activating Factor (MAF) was prepared from antigen-stimulated immune lymph node lymphocytes (guinea pig) as previously described by Hadden et al, Nature 257, 483-485 (1975). […] The active fraction was employed in both the proliferation and activation assays.
Ficoll-hypaque purified human peripheral blood lymphocytes were prepared and PHA-induced lymphocyte proliferation was assayed by the incorporation of tritiated thymidine as described in Hadden et al., Cell. Immunol. 20, 98-103 (1975). Each compound was analyzed in the presence of suboptimal, optimal and supraoptimal concentrations of PHA (0.001, 0.01, 0.1 units/ml respectively). Paraffin oil-induced guinea pig peritoneal macrophages were prepared and incubated as monolayer culture (>98% pure macrophages). Lymphokine (MMF)-induced proliferation was assayed by the incorporation of tritiated thymidine at 3 and 5 days of culture as described, Hadden et al, Nature 257, 483-485 (1975). Lymphokine (MAF)-induced macrophage activation to kill Listeria monocytogenes following 5 days of culture in the presence or absence of MAF was performed during a 6 hour period as described in Hadden and England, Immunopharmacology, pages 87-100 (Plenum Press, 1977). Phagocytosis was quantitated during a 20-minute exposure to Listeria monocytogenes by counting the number of macrophages containing bacteria and the number of bacteria per phagocytic cell on gram stained monolayers in Labtek chambers. Intracellular killing of bacteria was evaluated by counting the number of cells containing bacteria and the number of bacteria/cell 6 hours after the initial 20 minute exposure. Parallel experiments in which macrophages were lysed and intracellular bacteria were cultured confirm the validity of bacterial activity determined by this manner in this system. The drugs were employed in each of the three systems over serial log concentration range in triplicate in the presence and absence of mitogen or lymphokine. Each type of experiment was performed at least three times. Previous experiments indicate a parallelism of response to pharmacologic modulation in the proliferation and achivation assays.
as §2

L-1210 leukemic cells = assay: Anti-leukemic activity, inhibition of L-1210 growth; assay type: cell-based, mouse; details: 96 hours
Method: Anti-Leukemic Activity (Inhibition of L-1210 Growth)
Leukemic cells isolated from mice bearing the L-1210 tumor are cultured in vitro and their growth can be measured by counting the number of cells in the culture over a period of time. The incorporation of a test substance into the media will prevent the growth of the leukemic cells, an indication of an effective anti-leukemic agent.
I50 (concentration of drug inhibiting growth of L-1210) by % for the tested compounds was as follows:
To Measure Inhibition of Leukemic Cell (L-1210) Growth
Check to see that there is adequate cell growth in the stock cultures. Use cells 48-72 hours after transfers are done.
Weigh out the drugs at 50 times the desired final concentration and made serial dilutions.
Make up the final medium using 500 mls McCoy's 5A medium, 15% fetal calf serum, 5 mls penicillin-streptomycin solution, and 5 mls antibiotic-antimycotic solution and let it stand at room temperature.
Using sterile technique, add 0.1 ml of the drug dilutions to each tube.
Add an appropriate quantity of cells to the prepared medium. After mixing, remove a 0.5 ml sample, place it in a vial containing […] of saline, and count it on the Coulter Counter. Multiply the count by 40 to compensate for the 40 fold dilution (0.5 ml into […] and record the inoculum.
Add 5 mls of cell suspension to each tube. Swirl the bottle every 4 tubes to insure a more uniform distribution of cells.
Tighten the caps and place in the CO2 incubator at 36°-38° for 96 hours.
After 96 hours remove the tubes from the incubator and count the contents of each on the Coulter Counter. Multiply all counts by 40 and average the four counts for each drug dilution. If the count is less than the inoculum, record 100% inhibition. If the count is greater than the average of the eight control counts, record 0% inhibition. For all other counts use the following formula: [formula] 100%-% servival=inhibition of growth due to treatment.

immune response = assay: Immunomodulating activity (overall); assay type: cell-based
Source text: as §1, §2

influenza virus [3] = assay: Anti-influenza activity (overall); assay type: cell-based, several strains of A and B sub-types
[4] = test system: (Russian) influenza virus; assay: Inhibition of influenza virus replication, Russian; assay type: cell-based
[5] = test system: human peripheral blood lymphocytes; assay: Mitogen (PHA) induced human lymphocyte proliferation; assay type: cell-based; details: plus = immunostimulating, minus = immunoinhibiting, 0 = neither
[6] = 1.0-10 (unit not printed), listed as 15418

CCCCCCC(CO)n1cnc2c(=O)[nH]cnc21 (stereo not shown) [NPT 15418]
% Inhibition of Hemadsorption Foci (influenza virus [1]; Test Compound Conc. <10 μg/ml): 16% | % Inhibition of Hemadsorption Foci (influenza virus [1]; Test Compound Conc. >100 μg/ml): 52% | % Inhibition [2]: > 70% | % Stimulation, Mitogen Induced Murine Lymphocyte Proliferation (mouse lymphocytes; 01-1.0 μg/ml, listed as 15418): 20-30% | % Stimulation, Mitogen Induced Murine Lymphocyte Proliferation (mouse lymphocytes; 1.0-10 μg/ml, listed as 15418): > 50% | Maximum Percent Change, Mitogen Induced (Con A) Mouse Lymph. Prolif. (mouse lymphocytes; [6]): 73% | % Stimulation, Mitogen Induced Murine Lymphocyte Proliferation (mouse lymphocytes; 10-100 μg/ml, listed as 15418): 20-30% | Maximum Percent Change, Mitogen Induced (Con A) Mouse Lymph. Prolif. (mouse lymphocytes; 10-100 (unit not printed), listed as 15418): 26% | Maximum Percent Change, Mitogen Induced (Con A) Mouse Lymph. Prolif. (mouse lymphocytes; .01-1.0 (unit not printed), listed as 15418): 41% | Maximum Percent Change, Lymphokine Induced (MMF) Guinea Pig Mac. Prolif. (guinea pig macrophages; [6]): 80% | Maximum Percent Change, Lymphokine Induced (MMF) Guinea Pig Mac. Prolif. (guinea pig macrophages; .01-1.0 (unit not given)): 12% | I50 (concentration of drug inhibiting growth of L-1210) (L-1210 leukemic cells): 70 micrograms/ml | potentiation of the immune response (in words) (immune response): potentiation of the immune response has been observed | Potentiation of immunopotentiation by DIP.PAcBA salt (immune response; salt compared with parent compound): Yes | potentiation of anti-influenza activity by DIP.PAcBA salt (influenza virus [3]): does potentiate the anti-influenza activity and Yes | inhibit the replication of different strains of influenza virus (number of strains) (influenza virus [3]; concentrations ranging from 1-150 μg/ml): at least 4 different strains

CCCCCC[C@H]([C@H](C)O)n1cnc2c(N)ncnc21 (relative stereo) [NPT 15426, ERYTHRO-9-(2-HYDROXY-3-NONYL)-ADENINE. HCl]
inhibition at 10 µg/mL (influenza virus [1]; unidentified influenza virus, read-out: % Inhibition of Hemadsorption Foci, Test Compound Conc. <10 μg/ml): 50% | inhibition at 100 µg/mL (influenza virus [1]; unidentified influenza virus, read-out: % Inhibition of Hemadsorption Foci, Test Compound Conc. >100 μg/ml): 100% | % Inhibition ([4]; 0.1-1.0 μg/ml): 20-30% | % Inhibition ([4]; 1.0-10 μg/ml): 30-50% | % Inhibition ([4]; 10-100 μg/ml): 50-70% | % Inhibition ([4]; >100 μg/ml): 50-70% | % Stimulation, Mitogen Induced Murine Lymphocyte Proliferation (mouse lymphocytes; 01-1.0 μg/ml): 0% | % Stimulation, Mitogen Induced Murine Lymphocyte Proliferation (mouse lymphocytes; 1.0-10 μg/ml): 0% | Maximum Percent Change, Mitogen Induced (Con A) Mouse Lymph. Prolif. (mouse lymphocytes; 1.0-10 (unit not given)): -85% | % Stimulation, Mitogen Induced Murine Lymphocyte Proliferation (mouse lymphocytes; 10-100 μg/ml): 0% | Maximum Percent Change, Mitogen Induced (Con A) Mouse Lymph. Prolif. (mouse lymphocytes; 10-100 (unit not given)): -91% | Maximum Percent Change, Mitogen Induced (Con A) Mouse Lymph. Prolif. (mouse lymphocytes; .01-1.0 (unit not given)): -50% | Maximum Percent Change, Mitogen Induced (PHA) Human Lymph. Prolif. ([5]; 1.0-10 (unit not given)): -41% | Maximum Percent Change, Mitogen Induced (PHA) Human Lymph. Prolif. ([5]; .01-1.0 (unit not given)): 6% | anti-influenza activity (in words) (influenza virus [3]; compound by itself): significant anti-influenza activity
